Data on 26 compounds can be found in patent US20230102554A1 (GB002, INC., priority 2019, published 2023).

Bounds are passed on as bounds.

Assay [1] addresses T1, Human PDGFRα, cytoplasmic domain (GST-PDGFRα) (Homo sapiens, UniProt P16234).
T1 construct: made in house
As to the kind of experiment: Human PDGFRα biochemical inhibition assay (off-chip Mobility Shift Assay).

In assay [2] the target is T2, Human PDGFRβ, cytoplasmic domain (GST-PDGFRβ) (Homo sapiens, UniProt P09619).
T2 construct: made in house
T2 sequence (P09619 with tags, fused parts or gaps): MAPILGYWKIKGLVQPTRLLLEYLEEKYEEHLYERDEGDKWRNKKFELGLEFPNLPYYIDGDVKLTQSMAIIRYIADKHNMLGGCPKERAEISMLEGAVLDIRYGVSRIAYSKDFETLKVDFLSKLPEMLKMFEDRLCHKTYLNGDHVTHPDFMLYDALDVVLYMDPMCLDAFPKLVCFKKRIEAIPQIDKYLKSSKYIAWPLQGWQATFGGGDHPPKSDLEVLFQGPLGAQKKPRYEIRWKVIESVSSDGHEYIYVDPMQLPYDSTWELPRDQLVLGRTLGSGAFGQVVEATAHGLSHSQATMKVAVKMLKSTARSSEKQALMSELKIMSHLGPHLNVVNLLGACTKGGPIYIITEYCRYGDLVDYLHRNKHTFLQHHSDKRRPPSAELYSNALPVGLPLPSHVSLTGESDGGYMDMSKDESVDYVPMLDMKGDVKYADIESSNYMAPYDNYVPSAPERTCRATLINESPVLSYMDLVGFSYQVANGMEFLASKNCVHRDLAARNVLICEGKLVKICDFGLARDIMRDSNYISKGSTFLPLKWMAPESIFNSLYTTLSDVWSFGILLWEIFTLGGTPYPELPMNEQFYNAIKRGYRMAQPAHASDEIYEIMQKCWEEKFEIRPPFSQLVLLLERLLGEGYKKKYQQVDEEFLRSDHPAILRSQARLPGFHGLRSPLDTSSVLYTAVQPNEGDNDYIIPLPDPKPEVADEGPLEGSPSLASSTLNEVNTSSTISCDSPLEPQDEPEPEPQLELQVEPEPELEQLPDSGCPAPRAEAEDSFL
As to the kind of experiment: Human PDGFRβ biochemical inhibition assay (off-chip Mobility Shift Assay). In outline: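 GST-tagged cytoplasmic domain (aa 557-1106) from baculovirus was incubated 1 h at room temperature with compound, CSKtide, ATP at Km and Mg²⁺ in HEPES buffer, pH 7.5. Phosphorylated and unphosphorylated peptide were separated by off-chip mobility shift, and the product ratio P/(P+S) gave percent inhibition.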

T1 sequence (P16234 550-1089 T674I): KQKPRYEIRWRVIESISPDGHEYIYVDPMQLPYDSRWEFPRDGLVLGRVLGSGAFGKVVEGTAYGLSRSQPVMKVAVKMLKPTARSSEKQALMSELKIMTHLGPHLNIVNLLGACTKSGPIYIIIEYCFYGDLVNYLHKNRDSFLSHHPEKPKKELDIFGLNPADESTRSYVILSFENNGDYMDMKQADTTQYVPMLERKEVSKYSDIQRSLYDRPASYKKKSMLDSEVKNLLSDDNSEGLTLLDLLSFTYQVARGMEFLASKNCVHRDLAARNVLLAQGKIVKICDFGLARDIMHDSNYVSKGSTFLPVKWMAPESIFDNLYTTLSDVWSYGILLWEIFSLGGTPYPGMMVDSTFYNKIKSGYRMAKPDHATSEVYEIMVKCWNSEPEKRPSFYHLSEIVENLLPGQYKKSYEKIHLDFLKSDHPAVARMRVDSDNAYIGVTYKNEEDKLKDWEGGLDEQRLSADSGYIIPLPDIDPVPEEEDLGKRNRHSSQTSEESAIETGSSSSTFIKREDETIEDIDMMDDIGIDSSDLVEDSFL

In the case of `CCn1cc2ncc(N[C@@H](C)c3cc(NC(=O)Cc4ccc(C(C)(C)F)cn4)ccc3F)nc2n1` [Compound 683, (S)-N-(3-(1-((2-ethyl-2H-pyrazolo[3,4-b]pyrazin-6-yl)amino)ethyl)-4-fluorophenyl)-2-(5-(2-fluoropropan-2-yl)pyridin-2-yl)acetamide], the IC50 in assay [1] was 300 to 1000 nM; in assay [2], ≥ 1000 nM.
`CCn1cc2ncc(N[C@@H](C)c3cc(NC(=O)Cc4cncc(C(F)(F)F)c4)ccc3F)nc2n1` [Compound 685, (S)-N-(3-(1-((2-ethyl-2H-pyrazolo[3,4-b]pyrazin-6-yl)amino)ethyl)-4-fluorophenyl)-2-(5-(trifluoromethyl)pyridin-3-yl) acetamide]: the half-maximal inhibitory concentration (IC50) in assay [1] was < 300 nM; in assay [2] it was 300 to 1000 nM.
In the case of `CCn1cc2ncc(N[C@@H](C)c3cccc(NC(=O)Cc4cc(C)c(F)cn4)c3)nc2n1` [Compound 686, (S)-N-(3-(1-((2-ethyl-2H-pyrazolo[3,4-b]pyrazin-6-yl)amino)ethyl)phenyl)-2-(5-fluoro-4-methylpyridin-2-yl) acetamide], the half-inhibitory concentration (IC50) in assay [1] is < 300 nM; in assay [2], 300 to 1000 nM.
As for `CCn1cc2ncc(N[C@@H](C)c3cc(NC(=O)Cc4cc(C)c(F)cn4)ccc3C)nc2n1` [Compound 687, (S)-N-(3-(1-((2-ethyl-2H-pyrazolo[3,4-b]pyrazin-6-yl)amino)ethyl)-4-methylphenyl)-2-(5-fluoro-4-methylpyridin-2-yl)acetamide], the IC50 in assay [1] and in assay [2] was < 300 nM throughout.
Regarding `CCn1cc2ncc(N[C@@H](C)c3cccc(NC(=O)Cc4ccc(C(F)(F)F)cn4)c3)nc2n1` [Compound 688, (S)-N-(3-(1-((2-ethyl-2H-pyrazolo[3,4-b]pyrazin-6-yl)amino)ethyl)phenyl)-2-(5-(trifluoromethyl)pyridin-2-yl) acetamide], the IC50 was < 300 nM in assay [1] and ≥ 1000 nM in assay [2].
The like results for `CCn1cc2ncc(N[C@@H](C)c3cc(NC(=O)Cc4ccc(C)cn4)ccc3F)nc2n1` [Compound 689, (S)-N-(3-(1-((2-ethyl-2H-pyrazolo[3,4-b]pyrazin-6-yl)amino)ethyl)-4-fluorophenyl)-2-(5-methylpyridin-2-yl) acetamide] were, in that order, < 300 nM and ≥ 1000 nM.
For `CCn1cc2ncc(N[C@@H](C)c3cc(NC(=O)Cc4ccc(C(C)(C)F)cn4)ccc3C)nc2n1` [Compound 690, (S)-N-(3-(1-((2-ethyl-2H-pyrazolo[3,4-b]pyrazin-6-yl)amino)ethyl)-4-methylphenyl)-2-(5-(2-fluoropropan-2-yl)pyridin-2-yl)acetamide] the same measures were 300 to 1000 nM and ≥ 1000 nM.
For the compound `CCn1cc2ncc(N[C@@H](C)c3cc(NC(=O)Cc4cnc(C5CC5)c(F)c4)ccc3F)nc2n1` [Compound 691, (S)-2-(6-cyclopropyl-5-fluoropyridin-3-yl)-N-(3-(1-((2-ethyl-2H-pyrazolo[3,4-b]pyrazin-6-yl)amino)ethyl)-4-fluorophenyl)acetamide], the 50% inhibitory concentration (IC50) in assay [1] is < 300 nM; in assay [2] it was ≥ 1000 nM.
`CCn1cc2ncc(N[C@@H](C)c3cc(NC(=O)Cc4cncc(C(F)(F)F)c4)ccc3C)nc2n1` [Compound 692, (S)-N-(3-(1-((2-ethyl-2H-pyrazolo[3,4-b]pyrazin-6-yl)amino)ethyl)-4-methylphenyl)-2-(5-(trifluoromethyl)pyridin-3-yl)acetamide]: the half-maximal inhibitory concentration (IC50) in assay [1] and in assay [2] was < 300 nM each time.
In the case of `CCn1cc2ncc(N[C@@H](C)c3cccc(NC(=O)Cc4cc(C)c(C)cn4)c3)nc2n1` [Compound 693, (S)-2-(4,5-dimethylpyridin-2-yl)-N-(3-(1-((2-ethyl-2H-pyrazolo[3,4-b]pyrazin-6-yl)amino)ethyl)phenyl)acetamide], the concentration for half-maximal inhibition (IC50) in assay [1] is < 300 nM; in assay [2] it was ≥ 1000 nM.
The like results for `CCn1cc2ncc(N[C@@H](C)c3cc(NC(=O)Cc4cc(C)c(C)cn4)ccc3C)nc2n1` [Compound 694, (S)-2-(4,5-dimethylpyridin-2-yl)-N-(3-(1-((2-ethyl-2H-pyrazolo[3,4-b]pyrazin-6-yl)amino)ethyl)-4-methylphenyl) acetamide] were, in that order, < 300 nM and < 300 nM.
For `CCn1cc2ncc(N[C@@H](C)c3cccc(NC(=O)Cc4cc(C)c(Cl)cn4)c3)nc2n1` [Compound 695, (S)-2-(5-chloro-4-methylpyridin-2-yl)-N-(3-(1-((2-ethyl-2H-pyrazolo[3,4-b]pyrazin-6-yl)amino)ethyl)phenyl)acetamide] the same measures were < 300 nM and 300 to 1000 nM.
`CCn1cc2ncc(N[C@@H](C)c3cc(NC(=O)Cc4cc(C)c(Cl)cn4)ccc3C)nc2n1` [Compound 696, (S)-2-(5-chloro-4-methylpyridin-2-yl)-N-(3-(1-((2-ethyl-2H-pyrazolo[3,4-b]pyrazin-6-yl)amino)ethyl)-4-methylphenyl)acetamide]: the IC50 in assay [1] and in assay [2] was < 300 nM in each case.
In the case of `CCn1cc2ncc(N[C@@H](C)c3cccc(NC(=O)Cc4ccc(OC)cn4)c3)nc2n1` [Compound 697, (S)-N-(3-(1-((2-ethyl-2H-pyrazolo[3,4-b]pyrazin-6-yl)amino)ethyl)phenyl)-2-(5-methoxypyridin-2-yl)acetamide], the figures for the IC50 in assay [1] and in assay [2] were 300 to 1000 nM and ≥ 1000 nM, respectively.
The like results for `CCn1cc2ncc(N[C@@H](C)c3cc(NC(=O)Cc4ccc(OC)cn4)ccc3C)nc2n1` [Compound 698, (S)-N-(3-(1-((2-ethyl-2H-pyrazolo[3,4-b]pyrazin-6-yl)amino)ethyl)-4-methylphenyl)-2-(5-methoxypyridin-2-yl) acetamide] were, in that order, < 300 nM and 300 to 1000 nM.
With `CCn1cc2ncc(N[C@@H](C)c3cccc(NC(=O)Cc4ccc(F)c(C)n4)c3)nc2n1` [Compound 699, (S)-N-(3-(1-((2-ethyl-2H-pyrazolo[3,4-b]pyrazin-6-yl)ainino)ethyl)phenvl)-2-(5-fluoro-6-methylpyridin-2-yl) acetamide], the IC50 in assay [1] was < 300 nM; in assay [2], 300 to 1000 nM.
The like results for `CCn1cc2ncc(N[C@@H](C)c3cc(NC(=O)Cc4ccccc4F)ccc3C)nc2n1` [Compound 700, (S)-N-(3-(1-((2-ethyl-2H-pyrazolo[3,4-b]pyrazin-6-yl)amino)ethyl)-4-methylphenyl)-2-(2-fluorophenyl)acetamide] were, in that order, < 300 nM and < 300 nM.
With `CCn1cc2ncc(N[C@@H](C)c3cc(NC(=O)Cc4ccc(F)cc4)ccc3C)nc2n1` [Compound 701, (S)-N-(3-(1-((2-ethyl-2H-pyrazolo[3,4-b]pyrazin-6-yl)amino)ethyl)-4-methylphenyl)-2-(4-fluorophenyl)acetamide], the half-inhibitory concentration (IC50) in assay [1] and in assay [2] was < 300 nM throughout.
For `CCn1cc2ncc(N[C@@H](C)c3cc(NC(=O)Cc4cc(F)ccc4F)ccc3C)nc2n1` [Compound 702, (S)-2-(2,5-difluorophenyl)-N-(3-(1-((2-ethyl-2H-pyrazolo[3,4-b]pyrazin-6-yl)amino)ethyl)-4-methylphenyl)acetamide], the IC50 in assay [1] and in assay [2] was < 300 nM throughout.
Take `CCn1cc2ncc(N[C@@H](C)c3cc(NC(=O)Cc4ccc(C(C)(C)O)cn4)ccc3F)nc2n1` [Compound 703, (S)-N-(3-(1-((2-ethyl-2H-pyrazolo[3,4-b]pyrazin-6-yl)amino)ethyl)-4-fluorophenyl)-2-(5-(2-hydroxypropan-2-yl)pyridin-2-yl)acetamide]: the half-inhibitory concentration (IC50) in assay [1] and in assay [2] was ≥ 1000 nM in each case.
`CCn1cc2ncc(N[C@@H](C)c3cc(NC(=O)Cc4ccc(C(C)(C)O)cn4)ccc3C)nc2n1` [Compound 705, (S)-N-(3-(1-((2-ethyl-2H-pyrazolo[3,4-b]pyrazin-6-yl)amino)ethyl)-4-methylphenyl)-2-(5-(2-hydroxypropan-2-yl)pyridin-2-yl)acetamide]: the IC50 in assay [1] and in assay [2] was ≥ 1000 nM each time.
`CCn1cc2ncc(N[C@@H](C)c3cc(NC(=O)Cc4cnc(C)c(F)c4)ccc3F)nc2n1` [Compound 706, (S)-N-(3-(1-((2-ethyl-2H-pyrazolo[3,4-b]pyrazin-6-yl)amino)ethyl)-4-fluorophenyl)-2-(5-fluoro-6-methylpyridin-3-yl) acetamide]: the results for the IC50 in assay [1] and in assay [2] were < 300 nM and ≥ 1000 nM, respectively.
As for `CCn1cc2ncc(N[C@@H](C)c3cc(NC(=O)Cc4cnc(C)c(F)c4)ccc3C)nc2n1` [Compound 707, (S)-N-(3-(1-((2-ethyl-2H-pyrazolo[3,4-b]pyrazin-6-yl)amino)ethyl)-4-methylphenyl)-2-(5-fluoro-6-methylpyridin-3-yl)acetamide], the figures for the IC50 in assay [1] and in assay [2] were < 300 nM and 300 to 1000 nM, respectively.
Turning to `CCn1cc2ncc(N[C@@H](C)c3cc(NC(=O)Cc4cnc(C5CC5)c(F)c4)ccc3C)nc2n1` [Compound 708, (S)-2-(6-cyclopropyl-5-fluoropyridin-3-yl)-N-(3-(1-((2-ethyl-2H-pyrazolo[3,4-b]pyrazin-6-yl)amino)ethyl)-4-methylphenyl)acetamide], the concentration for half-maximal inhibition (IC50) in assay [1] is < 300 nM; in assay [2] it was 300 to 1000 nM.
As to `CCn1cc2ncc(N[C@@H](C)c3cccc(NC(=O)Cc4ccc(C(C)C)cn4)c3)nc2n1` [Compound 709, (S)-N-(3-(1-((2-ethyl-2H-pyrazolo[3,4-b]pyrazin-6-yl)amino)ethyl)phenyl)-2-(5-isopropylpyridin-2-yl)acetamide], the half-maximal inhibitory concentration (IC50) is 300 to 1000 nM in assay [1] and ≥ 1000 nM in assay [2].
For `CCn1cc2ncc(N[C@@H](C)c3cc(NC(=O)Cc4ccc(C(C)C)cn4)ccc3C)nc2n1` [Compound 710, (S)-N-(3-(1-((2-ethyl-2H-pyrazolo[3,4-b]pyrazin-6-yl)amino)ethyl)-4-methylphenyl)-2-(5-isopropylpyridin-2-yl) acetamide], the IC50 in assay [1] is < 300 nM; in assay [2], ≥ 1000 nM.

One may read the IC50 as the concentration that inhibits the measured activity by half.
